Test results published in ChEMBL document CHEMBL2074111, “Functional characterization of the rat mdr1b encoded P-glycoprotein: not all inducing agents are substrates” (Carcinogenesis, 1997).

Biological target: ATP-dependent translocase ABCB1 (Rattus norvegicus, UniProt P43245)
Assay: TP_TRANSPORTER: intracellular accumulation in mdr1b-expressing NIH3T3 cells
Assay type: functional, cell-based
Details: mouse

Chain of ATP-dependent translocase ABCB1 (P43245 whole entry): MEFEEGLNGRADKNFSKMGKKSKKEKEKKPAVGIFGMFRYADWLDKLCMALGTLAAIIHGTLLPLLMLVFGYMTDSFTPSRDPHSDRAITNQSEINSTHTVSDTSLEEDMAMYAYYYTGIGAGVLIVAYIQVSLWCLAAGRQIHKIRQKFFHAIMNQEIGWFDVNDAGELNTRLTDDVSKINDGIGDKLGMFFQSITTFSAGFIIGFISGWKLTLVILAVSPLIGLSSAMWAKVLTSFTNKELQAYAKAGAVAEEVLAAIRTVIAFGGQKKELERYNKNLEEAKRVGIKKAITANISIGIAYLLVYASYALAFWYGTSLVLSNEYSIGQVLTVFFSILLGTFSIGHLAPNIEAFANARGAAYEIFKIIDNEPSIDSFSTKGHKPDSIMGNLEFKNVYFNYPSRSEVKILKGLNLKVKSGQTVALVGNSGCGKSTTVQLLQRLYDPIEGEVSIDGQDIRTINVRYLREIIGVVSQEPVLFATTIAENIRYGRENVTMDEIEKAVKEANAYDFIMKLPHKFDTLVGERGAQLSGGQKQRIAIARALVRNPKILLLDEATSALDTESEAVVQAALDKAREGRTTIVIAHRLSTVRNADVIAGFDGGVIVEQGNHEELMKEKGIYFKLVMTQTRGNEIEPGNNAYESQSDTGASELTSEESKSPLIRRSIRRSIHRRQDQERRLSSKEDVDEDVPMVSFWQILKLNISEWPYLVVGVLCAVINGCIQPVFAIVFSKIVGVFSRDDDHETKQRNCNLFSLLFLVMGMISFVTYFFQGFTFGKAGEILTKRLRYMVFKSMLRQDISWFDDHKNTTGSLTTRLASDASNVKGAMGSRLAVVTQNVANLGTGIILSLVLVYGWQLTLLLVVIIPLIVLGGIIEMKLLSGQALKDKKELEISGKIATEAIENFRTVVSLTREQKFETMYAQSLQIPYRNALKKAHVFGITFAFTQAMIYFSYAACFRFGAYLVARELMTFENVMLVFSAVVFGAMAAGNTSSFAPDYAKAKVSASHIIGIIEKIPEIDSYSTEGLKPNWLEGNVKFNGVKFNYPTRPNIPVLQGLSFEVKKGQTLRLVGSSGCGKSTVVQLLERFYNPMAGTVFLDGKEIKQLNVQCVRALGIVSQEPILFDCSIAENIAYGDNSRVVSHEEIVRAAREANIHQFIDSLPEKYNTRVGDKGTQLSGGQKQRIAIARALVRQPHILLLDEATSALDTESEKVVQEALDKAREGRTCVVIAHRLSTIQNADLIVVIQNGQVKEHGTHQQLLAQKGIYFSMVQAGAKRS

Activity: substrate [+]
SMILES: COC(=O)c1ccccc1-c1c2ccc(=N)cc-2oc2cc(N)ccc12.Cl [RHODAMINE123]
